Among the data in patent US8288429B2, “2-aza-bicyclo[3.3.0]octane derivatives” (Actelion Pharmaceuticals Ltd., priority 2007, dated 2012) are IC50 values, retold here.

Where two headings read alike, the source gives them in different places.

One assay has as its target T1, human orexin-2 receptor (Homo sapiens, UniProt O43614).
T1 construct: expressed in transfected cells; host or cells: CHO cells (selected with G418)
T1 sequence (O43614 1-444): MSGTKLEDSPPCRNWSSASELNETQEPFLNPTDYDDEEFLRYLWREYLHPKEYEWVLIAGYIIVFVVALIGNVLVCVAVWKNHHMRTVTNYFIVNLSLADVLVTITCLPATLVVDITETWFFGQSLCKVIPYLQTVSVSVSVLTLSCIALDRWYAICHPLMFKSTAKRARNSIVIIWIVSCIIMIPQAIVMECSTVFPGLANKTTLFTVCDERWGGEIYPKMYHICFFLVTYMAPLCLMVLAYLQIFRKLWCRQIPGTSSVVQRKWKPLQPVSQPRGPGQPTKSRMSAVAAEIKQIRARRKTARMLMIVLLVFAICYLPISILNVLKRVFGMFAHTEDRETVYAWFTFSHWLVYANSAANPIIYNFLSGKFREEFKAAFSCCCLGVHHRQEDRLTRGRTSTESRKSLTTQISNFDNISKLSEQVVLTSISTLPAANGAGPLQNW
The assay is described as follows: Intracellular calcium measurement (FLIPR), orexin-A induced response in CHO cells expressing the human orexin-2 receptor. In kind it is cell-based. As to conditions: 3 nM orexin-A as agonist. The protocol: (§1) The orexin receptor antagonistic activity of the compounds of formula (I) is determined in accordance with the following experimental method.
(§2) Intracellular Calcium Measurements:
(§3) Chinese hamster ovary (CHO) cells expressing the human orexin-1 receptor and the human orexin-2 receptor, respectively, are grown in culture medium (Ham F-12 with L-Glutamine) containing 300 μg/ml G418, 100 U/ml penicillin, 100 μg/ml streptomycin and 10% heat inactivated fetal calf serum (FCS). The cells are seeded at 20,000 cells/well into 384-well black clear bottom sterile plates (Greiner). The seeded plates are incubated overnight at 37° C. in 5% CO2.
(§4) Human orexin-A as an agonist is prepared as 1 mM stock solution in MeOH: water (1:1), diluted in HBSS containing 0.1% bovine serum albumin (BSA), NaHCO3: 0.375 g/l and 20 mM HEPES for use in the assay at a final concentration of 3 nM.
(§5) Antagonists are prepared as 10 mM stock solution in DMSO, then diluted in 384-well plates using DMSO followed by a transfer of the dilutions into in HBSS containing 0.1% bovine serum albumin (BSA), NaHCO3: 0.375 g/l and 20 mM HEPES. On the day of the assay, 50 μl of staining buffer (HBSS containing 1% FCS, 20 mM HEPES, NaHCO3: 0.375 g/l, 5 mM probenecid (Sigma) and 3 μM of the fluorescent calcium indicator fluo-4 AM (1 mM stock solution in DMSO, containing 10% pluronic) is added to each well. The 384-well cell-plates are incubated for 50 min at 37° C. in 5% CO2 followed by equilibration at rt for 30-120 min before measurement.
(§6) Within the Fluorescent Imaging Plate Reader (FLIPR2 or FLIPR Tetra, Molecular Devices), antagonists are added to the plate in a volume of 10 μl/well, incubated for 10 min and finally 10 μl/well of agonist is added. Fluorescence is measured for each well at 1 second intervals, and the height of each fluorescence peak is compared to the height of the fluorescence peak induced by 3 nM orexin-A with vehicle in place of antagonist. For each antagonist, the IC50 value (the concentration of compound needed to inhibit 50% of the agonistic response) is determined. The calculated IC50 values of the compounds may fluctuate depending on the daily cellular assay performance. Fluctuations of this kind are known to those skilled in the art.

The target in the next assay is T2, human orexin-1 receptor (Homo sapiens, UniProt O43613).
T2 construct: expressed in transfected cells; host or cells: CHO cells (selected with G418)
T2 sequence (O43613 1-425): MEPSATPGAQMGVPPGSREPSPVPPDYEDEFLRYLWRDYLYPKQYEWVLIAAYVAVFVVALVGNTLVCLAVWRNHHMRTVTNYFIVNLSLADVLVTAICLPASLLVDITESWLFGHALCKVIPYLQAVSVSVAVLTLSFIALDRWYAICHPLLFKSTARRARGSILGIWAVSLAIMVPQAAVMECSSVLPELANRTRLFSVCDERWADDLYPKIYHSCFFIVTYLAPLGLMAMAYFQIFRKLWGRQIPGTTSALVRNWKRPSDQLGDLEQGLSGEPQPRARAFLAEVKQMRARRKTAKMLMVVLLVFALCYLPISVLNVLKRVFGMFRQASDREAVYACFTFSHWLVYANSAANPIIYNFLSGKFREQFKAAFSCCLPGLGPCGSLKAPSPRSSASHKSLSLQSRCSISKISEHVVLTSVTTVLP
In words: Intracellular calcium measurement (FLIPR), orexin-A induced response in CHO cells expressing the human orexin-1 receptor. In kind it is cell-based. As to conditions: 3 nM orexin-A as agonist. The protocol: as §1, §2, §3, §4, §5, §6

The mark [1] stands for this setting: measured using FLIPR Tetra (footnote 1), read-out: OX2 IC50.
[2] abbreviates: measured using FLIPR Tetra (footnote 1), read-out: OX1 IC50.
The mark [3] stands for this setting: measured using FLIPR2, read-out: OX2 IC50.
[4] abbreviates: measured using FLIPR2, read-out: OX1 IC50.

Regarding `O=C(NC[C@@H]1C[C@@H]2CCC[C@@H]2N1C(=O)c1nc(C2CC2)sc1-c1ccccc1)c1cccc2c1CCO2` [Example 26, 2,3-Dihydro-benzofuran-4-carboxylic acid [(1S,3S,5S)-2-(2-cyclopropyl-5-phenyl-thiazole-4-carbonyl)-2-azabicyclo[3.3.0]octane-3-ylmethyl]-amide], the IC50 at human orexin-2 receptor (setting [1]) amounted to 41 nM; on human orexin-1 receptor (setting [2]) it was 48 nM.

As to `Cc1nc(C(=O)N2[C@H](CNC(=O)c3cccc4c3CCO4)C[C@@H]3CCC[C@@H]32)c(-c2ccc(F)c(Br)c2)s1` [Example 19, 2,3-Dihydro-benzofuran-4-carboxylic acid {(1S,3S,5S)-2-[5-(3-bromo-4-fluoro-phenyl)-2-methyl-thiazole-4-carbonyl]-2-azabicyclo[3.3.0]octane-3-ylmethyl}-amide], the IC50 at human orexin-2 receptor (setting [1]) was determined as 32 nM; on human orexin-1 receptor (setting [2]), 37 nM.

For `Cc1nc(C(=O)N2[C@H](CNC(=O)c3noc4ccccc34)C[C@@H]3CCC[C@@H]32)c(-c2cccc(Cl)c2)s1` [Example 9, Benzo[d]isoxazole-3-carboxylic acid {(1S,3S,5S)-2-[5-(3-chloro-phenyl)-2-methyl-thiazole-4-carbonyl]-2-azabicyclo[3.3.0]octane-3-ylmethyl}-amide], the IC50 at human orexin-2 receptor (setting [3]) came to 283 nM; on human orexin-1 receptor (setting [4]), 275 nM.

`Cc1nc2sccn2c1C(=O)NC[C@@H]1C[C@@H]2CCC[C@@H]2N1C(=O)c1nc(C2CC2)sc1-c1cccc(C(F)(F)F)c1` [Example 7, 6-Methyl-imidazo[2,1-b]thiazole-5-carboxylic acid {(1S,3S,5S)-2-[2-cyclopropyl-5-(3-trifluoromethyl-phenyl)-thiazole-4-carbonyl]-2-azabicyclo[3.3.0]octane-3-ylmethyl}-amide]: the concentration for half-maximal inhibition (IC50) on human orexin-2 receptor (setting [3]) came to 95 nM; on human orexin-1 receptor (setting [4]) it was 18 nM.

For the compound `Cc1nc(C(=O)N2[C@H](CNC(=O)c3cccc4c3CCO4)C[C@@H]3CCC[C@@H]32)c(-c2cccc(C(F)(F)F)c2)s1` [Example 16, 2,3-Dihydro-benzofuran-4-carboxylic acid {(1S,3S,5S)-2-[2-methyl-5-(3-trifluoromethyl-phenyl)-thiazole-4-carbonyl]-2-azabicyclo[3.3.0]octane-3-ylmethyl}-amide], the IC50 on human orexin-2 receptor (setting [1]) was 12 nM; on human orexin-1 receptor (setting [2]), 11 nM.

`Cc1ccc(-c2sc(C)nc2C(=O)N2[C@H](CNC(=O)c3c(C)nc4sccn34)C[C@@H]3CCC[C@@H]32)cc1` [Example 1, 6-Methyl-imidazo[2,1-b]thiazole-5-carboxylic acid [(1S,3S,5S)-2-(2-methyl-5-p-tolyl-thiazole-4-carbonyl)-2-azabicyclo[3.3.0]octane-3-ylmethyl]-amide]: the IC50 at human orexin-2 receptor (setting [3]) is 40 nM; on human orexin-1 receptor (setting [4]), 17 nM.
